Assay results from US20180221306A1, “PHARMACEUTICAL COMPOSITIONS OF 5-HYDROXY-2-METHYLNAPHTHALENE-1,4-DIONE” (PellFiCure Pharmaceuticals, Inc., priority 2016, published 2018).

Assays:
rat = details: suspension in 0.5% of gum acacia in water or in propylene glycol, oral; cited from earlier work
mice = details: over a period of 14 days; cited from earlier work
[1] = tested on: PTEN-P2/H2B-GFP mouse prostate cancer cells; experiment: IVM pseudo-orthotopic prostate chamber model, tumor size
Description: Male Nude mice (25-35 g body weight) are anesthetized (7.3 mg ketamine hydrochloride and 2.3 mg xylazine/100 g body weight, i.p.) and placed on a heating pad. Two symmetrical titanium frames are implanted into a dorsal skinfold, so as to sandwich the extended double layer of skin. A 15 mm full thickness circular layer is excised. The underlying muscle (M. cutaneous max.) and subcutaneous tissues are covered with a glass coverslip incorporated in one of the frames. After a recovery period of 2-3 days, prostate tissue and cancer cell spheroids are carefully placed in the chamber. Small circular Band Aids are applied on the backside of the chamber after surgery to prevent scratching. Before surgery, Buprenorphine (0.1 mg/kg) is given IP. After surgery Meloxicam is given in the drinking water for 4 days Meloxicam (5.0 mg/ml), is added at 35 μl per 100 ml of water to be medicated.
Mice are anesthetized with 7.3 mg ketamine hydrochloride and 2.3 mg xylazine/100 g body weight, i.p. A lateral incision across the scrotum is made and the testes are individually ligated and excised. The wound is cauterized. The incision is then sutured and sealed with Nexaband® acrylic.
Preparation of tumor spheroids: Liquid overlay plates were generated using 1% molecular biology grade agarose melted in cell culture medium and plated in round bottom 96 well plates at 50 ul/well. Tumor cells grown as pre-confluent monolayers were trypsinized and diluted to a final volume of 1,000,000 cells/ml. Viability was determined by Trypan blue. Cells were placed onto the cooled agarose (70 μl/well) and allowed to compact into spheroids for 24 hours. The spheroids were picked with a pipette and transferred into serum-free media for implantation in the chambers.
IntraVital Microscopy (IVM) can be used to visualize tumors in animals and analyze various aspects of cancer physiology such as tumor vascularization, cell migration and metastasis. An advantage of IVM includes the real-time analysis of dynamic processes with single-cell resolution. IntraVital microscopy offers the possibility to follow tumor growth in a non-invasive, non-destructive manner. The application of IVM can be limited to animal models that bear visually accessible tumors. Therefore, the dorsal skinfold chamber model described above can be compatible with IVM. Using IVM can permit a number of parameters to be measured in living animals and as a function of time, including tumor growth, angiogenesis, infiltration by immune cells, tumor cell migration, mitosis (cell-division) and apoptosis (programmed cell death), all in the context of the host and in real time.
Unless otherwise indicated, Compound I was administered by oral gavage in a sesame oil (Carrier A) formulation. Compound I was dissolved in DMSO then in oil at a concentration of 0.25 mg/ml (weight/volume) with a final DMSO concentration of 0.5% (vol/vol), and administered to mice at 1 mg/kg. In some experiments, Compound I dissolved in a mixture of poly-ethylene glycol/DMSO 30% (w/v) was administered via intra-peritoneal injection.
The efficacy of the formulation of Compound I in Carrier A for oral administration was compared to the previous formulation of Compound I in poly-ethylene glycol (PEG) for intra-peritoneal injection (i.p.). These experiments were performed using Intra Vital Microscopy (IVM) in a pseudo-orthotopic prostate chamber model in which minced prostate tissue is grafted in chambers surgically placed in the dorsal skinfold of mice, and allowed to vascularize. Small tumor cells spheroids were then placed on the prostate tissue, creating a biologically relevant prostatic environment. The tumor cells that express fluorescent H2B-GFP and can be detected in situ and in real-time through the microscopy window of the dorsal chamber.
Epithelial cell lines derived from the prostate tumor of a PTEN-null mouse were used. Mouse prostate cancer cells PTEN-P2 are heterozygous for PTEN deletion and do express protein PTEN.

Sprague Dawley rats = experiment: 7-day dose range-finding study; format: in vivo, rat
Description: A single-dose maximum tolerated dose (MTD) phase A study and a 7-day dose range-finding (DRF) phase B study were conducted in Sprague Dawley rats by MPI Research, Inc. (Mattawan, Mich.). A total of 62 males and 62 females rats were assigned to the study, which was performed in accordance with all current regulations. Animals were housed in standard conditions and had ad libitum access to food and water. Healthy animals of each sex were randomized into treatment groups using a standard, by weight, measured value randomization procedure. Compound I was administered by oral gavage, once at each dose level in Phase A (acute), or once daily for 7 consecutive days in Phase B. Oral gavage was chosen because the oral route is the intended route of administration in humans. Animals were observed twice daily for morbidity and mortality and were euthanatized for humane reasons where appropriate. An initial starting dose of 50 mg/kg was used for Phase A. Subsequent doses were increased or decreased based on the response to the preceding dose. […] The dose levels used in Phase B were based on the MTD identified in Phase A.
Daily doses of 0 (vehicle), 10, 30 and 100 mg/kg were then administered to Sprague Dawley rats by oral gavage for seven days for the dose-range finding study. […] Adverse events included decreased body weight or decreased body weight gain, decreased food consumption, adverse effects on various pathological parameters and Compound I-related macroscopic and microscopic abnormalities in multiple organs. […] The toxicity profile of Compound I is encouraging considering that the drug is effective in rodents at much lower doses. This toxicity-to-effectiveness dose ratio provides, potentially, a wide therapeutic window.

CC1=CC(=O)c2c(O)cccc2C1=O [Compound I, 5-hydroxy-2-methylnaphthalene-1,4-dione]
LD50 (rat): 65 mg/kg
LD50 (mice): 8 mg/kg
Tumor regression at higher doses ([1]; 3 and 10 mg/kg/day in oil, oral, castrated mice): no improvement over the dose of 1 mg/kg/day
Combination efficacy ([1]; Compound I administered orally in combination with surgical castration): Yes
Shrinkage of the tumors ([1]; Compound I in Carrier A orally 1 mg/kg/day with degarelix): approximately 50%
Tumor size relative to the starting size ([1]; Compound I in Carrier A orally with abiraterone/prednisone): less than 60%
Effect on tumor size ([1]; Compound I in Carrier A orally with bicalutamide): did not result in a reduction of initial tumor size
Shrinkage of the tumor size ([1]; Compound I in Carrier A orally with dutasteride): approximately 30%
Effect on tumor size ([1]; Compound I in Carrier A orally with enzalutamide): did not result in a reduction in tumor size
Tumor size relative to the starting size ([1]; Compound I in Carrier A orally with orteronel): less than 60%
Decrease of tumor sizes ([1]; Compound I in PEG, i.p. 1 mg/kg/day, castrated mice, p<0.001): 50%
Effectiveness vs drug alone ([1]; combination of bicalutamide with Compound I): no more effective than treatment with the drug alone
Effectiveness vs drug alone ([1]; combination of enzalutamide with Compound I): no more effective than treatment with the drug alone
Effect on tumor size ([1]; combination of leuprolide and the oral formulation of Compound I): caused the tumors to shrink
Tumor flare vs leuprolide alone ([1]; combination of the oral formulation of Compound I and leuprolide): shorter and of lesser amplitude
Efficiency vs combination with surgical castration ([1]; combination with 2 mg/kg dutasteride): nearly as efficient as the combination of Compound I with surgical castration
Efficiency vs chemical ADT by itself ([1]; combination with abiraterone/prednisone vs abiraterone/prednisone): more efficient
Shrinkage vs comparator combination ([1]; combination with abiraterone/prednisone, comparator printed as combination of Compound I and abiraterone/prednisone): more shrinkage of tumors
Shrinkage vs combination of Compound I and castration ([1]; combination with degarelix): more shrinkage of tumors
Efficiency vs chemical ADT by itself ([1]; combination with degarelix vs degarelix): more efficient
Dose dependence of tumor regression ([1]; combination with dutasteride at 2, 0.3, 0.1, 0.03 mg/kg): tumor regression proportionally to the dose of dutasteride
Efficiency vs chemical ADT by itself ([1]; combination with dutasteride vs dutasteride, p<0.001): more efficient
Shrinkage vs combination of Compound I and castration ([1]; combination with orteronel): more shrinkage of tumor size
Efficiency vs chemical ADT by itself ([1]; combination with orteronel vs orteronel): more efficient
Maximum tumor size reached, relative to initial tumor size ([1]; leuprolide plus Compound I orally 1 mg/kg/day, p=0.014 between treatments): 120%
Tumor regression at lower doses ([1]; lower doses than 1 mg/kg/day (FIG. 3B), oral in Carrier A, castrated mice): less efficient at causing tumor regression
Tolerability of oral administration ([1]; mice, up to 10 mg/kg/day for 21 days, no changes in whole body weights or animal behavior): well tolerated
Dose of optimal effect ([1]; oil formulation, oral, castrated mice): 1 mg/kg/day
Tumor regression, oral formulation versus i.p. formulation ([1]; oral 1 mg/kg/day in Carrier A, castrated mice): as effectively as i.p. injection of 1 mg/kg Compound I in PEG
Dose at which Compound I was maximally effective ([1]; see Example 5): 1 mg/kg
Toxicity observed in rats (Sprague Dawley rats; 10 mg/kg/day): Very little toxicity
Compound I-related effects (Sprague Dawley rats; 10 mg/kg/day low-dose level): limited to minimal changes noted in the teeth of one male
Microscopic findings (Sprague Dawley rats; 30 mg/kg/day, both sexes): Minimal to mild non-adverse microscopic abnormalities in various organs
Clinical chemistry findings (Sprague Dawley rats; 30 mg/kg/day, oral gavage, seven days): minimal increases in mean serum total bilirubin concentration and alkaline phosphatase activity
Morbidity/mortality (Sprague Dawley rats; 100 mg/kg/day, beginning on day 3, early termination of all animals on Day 5): Morbidity/mortality occurred both in male and female rats
